Measured values taken from paper PMC5895803, “Inhibition of cancer stem cell like cells by a synthetic retinoid” (Nature Communications, 2018).
≈ marks a conversion by molar mass, not a printed value. Where “and” joins values, the source holds several entries; their conditions need not be identical. Equal entries are not always repeated.

Assays:
CYP 1A2 = molecular target: T1, CYP 1A2 (Homo sapiens, UniProt P05177); test: Cytochromes enzyme inhibition assay, human liver microsomes; format: in vitro ADME; conditions: substrate phenacetin (30 µM)
T1 construct: from tissue; host or cells: human liver microsomes
T1 sequence (P05177 whole entry): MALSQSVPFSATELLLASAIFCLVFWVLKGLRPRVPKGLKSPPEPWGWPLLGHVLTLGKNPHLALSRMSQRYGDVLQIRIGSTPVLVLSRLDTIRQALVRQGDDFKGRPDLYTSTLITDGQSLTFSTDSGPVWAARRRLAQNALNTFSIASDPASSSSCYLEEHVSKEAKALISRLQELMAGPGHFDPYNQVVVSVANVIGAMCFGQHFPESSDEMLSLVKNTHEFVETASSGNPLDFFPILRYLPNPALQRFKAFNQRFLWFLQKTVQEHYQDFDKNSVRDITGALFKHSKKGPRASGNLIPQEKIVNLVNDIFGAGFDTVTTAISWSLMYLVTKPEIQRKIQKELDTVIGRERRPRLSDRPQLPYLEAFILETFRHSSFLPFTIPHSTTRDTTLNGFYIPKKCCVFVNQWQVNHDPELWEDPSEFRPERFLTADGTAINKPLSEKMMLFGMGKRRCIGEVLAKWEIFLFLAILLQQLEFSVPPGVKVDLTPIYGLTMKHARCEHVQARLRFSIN

Water solubility = conditions: PBS (pH 7.4), pH 7.4, aqueous buffer, kinetic from dmso stock
[1] = system: B16-F1 TRCs lung metastases; test: Lung metastasis of B16-F1 TRCs in immune-competent mice; format: in vivo, C57BL/6 mice; conditions: for Metastases in H&E-stained organ sections: 0.022 mg kg-1; for Mice with lung metastases: 8 mice per group, day 30
Excerpt: Four- to six-week-old female and male C57BL/6 mice were used in mice experiment. Mice were randomized into different groups. In metastasis experiment, B16-F1 cell spheroids were selected from 3D 90-Pa fibrin gels and pipetted to single cells. These TRCs were harvested and the cell number was counted under microscopy. The cells were then suspended in PBS with appropriate cell density. Thirty thousand TRCs were intravenously injected into the tail vein of each wild-type C57BL/6 mouse. Five days later, inoculated mice were intravenous implanted with 0.022 mg kg^−1 WYC-209, 0.22 mg kg^−1 WYC-209, or 0.1% DMSO every two days. The mice were euthanized and examined for lung tumor formation at day 30. In treated TRCs injected in vivo experiments, B16-F1 cells were seeded into 3D 90-Pa fibrin gels and treated with 10 µM WYC-209 or 0.1% DMSO on day 3, then isolated treated TRCs colonies on day 5 and pipetted into single cell. 30,000 of TRCs were intravenously injected into the tail vein of each wild-type C57BL/6 mouse. No blinding was performed in the mice experiments.
Lung, liver, spleen, bone, stomach, and brain of C57BL/6 mice were fixed by 4% paraformaldehyde then were embedded in paraffin and cut to ~4 µm thick sections by Thermo FINESSE 325. Organ sections were stained by H&E and slides were evaluated for tumor formation by a veterinary pathologist blinded to sample identity.

CYP 3A4 = molecular target: T2, CYP 3A4 (Homo sapiens, UniProt P08684); test: Cytochromes enzyme inhibition assay, human liver microsomes; format: in vitro ADME
T2 construct: from tissue; host or cells: human liver microsomes
T2 sequence (P08684 whole entry): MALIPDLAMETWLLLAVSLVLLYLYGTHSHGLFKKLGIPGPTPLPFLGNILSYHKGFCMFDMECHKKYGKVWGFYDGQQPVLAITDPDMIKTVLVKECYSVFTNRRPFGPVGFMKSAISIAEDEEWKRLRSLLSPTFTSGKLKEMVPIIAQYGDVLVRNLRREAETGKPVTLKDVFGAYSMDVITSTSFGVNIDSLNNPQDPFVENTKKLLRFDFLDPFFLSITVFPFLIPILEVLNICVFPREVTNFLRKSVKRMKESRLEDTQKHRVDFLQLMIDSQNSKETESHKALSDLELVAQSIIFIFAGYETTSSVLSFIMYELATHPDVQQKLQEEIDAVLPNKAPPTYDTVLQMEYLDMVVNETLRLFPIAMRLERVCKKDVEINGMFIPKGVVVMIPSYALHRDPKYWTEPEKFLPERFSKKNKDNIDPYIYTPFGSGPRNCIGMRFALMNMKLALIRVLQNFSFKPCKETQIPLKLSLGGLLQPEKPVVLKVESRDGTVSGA

B16-F1 TRCs = test: Colony growth of B16-F1 TRCs in 90-Pa 3D soft fibrin gels; format: cell-based, murine; conditions: for IC50 lower / potency higher than that of Tazarotene: B16-F1 TRC growth; for inhibition at 10 µM / IC50: Mus musculus; for inhibition at 10 µM: B16-F1, 10 μM, treated on day 0, day 5; for IC50: B16-F1 in 90-Pa fibrin gels, treated on day 0, colony size on day 5; for Growth after re-plating into new soft fibrin gels without compound: washed out
CYP 2D6 = molecular target: T3, CYP 2D6 (Homo sapiens, UniProt P10635); test: Cytochromes enzyme inhibition assay, human liver microsomes; format: in vitro ADME; conditions: substrate bufuralol (10 µM)
T3 construct: from tissue; host or cells: human liver microsomes
T3 sequence (P10635 whole entry): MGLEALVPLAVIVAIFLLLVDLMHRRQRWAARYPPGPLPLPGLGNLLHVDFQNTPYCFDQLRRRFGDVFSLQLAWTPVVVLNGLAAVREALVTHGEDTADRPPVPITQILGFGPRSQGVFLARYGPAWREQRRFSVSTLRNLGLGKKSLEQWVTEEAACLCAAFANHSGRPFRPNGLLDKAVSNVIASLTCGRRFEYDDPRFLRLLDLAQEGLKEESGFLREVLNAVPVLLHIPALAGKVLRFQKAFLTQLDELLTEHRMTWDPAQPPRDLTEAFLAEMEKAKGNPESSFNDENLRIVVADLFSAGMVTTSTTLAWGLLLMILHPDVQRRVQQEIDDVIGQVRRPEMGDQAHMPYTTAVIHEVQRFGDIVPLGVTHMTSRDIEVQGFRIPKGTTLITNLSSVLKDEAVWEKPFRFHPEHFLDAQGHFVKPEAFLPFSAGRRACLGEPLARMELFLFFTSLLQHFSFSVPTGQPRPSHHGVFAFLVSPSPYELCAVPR

CYP 2C19 = molecular target: T4, CYP 2C19 (Homo sapiens, UniProt P33261); test: as above; format: in vitro ADME; conditions: substrate S-mephenytoin (35 µM)
T4 construct: from tissue; host or cells: human liver microsomes
T4 sequence (P33261 whole entry): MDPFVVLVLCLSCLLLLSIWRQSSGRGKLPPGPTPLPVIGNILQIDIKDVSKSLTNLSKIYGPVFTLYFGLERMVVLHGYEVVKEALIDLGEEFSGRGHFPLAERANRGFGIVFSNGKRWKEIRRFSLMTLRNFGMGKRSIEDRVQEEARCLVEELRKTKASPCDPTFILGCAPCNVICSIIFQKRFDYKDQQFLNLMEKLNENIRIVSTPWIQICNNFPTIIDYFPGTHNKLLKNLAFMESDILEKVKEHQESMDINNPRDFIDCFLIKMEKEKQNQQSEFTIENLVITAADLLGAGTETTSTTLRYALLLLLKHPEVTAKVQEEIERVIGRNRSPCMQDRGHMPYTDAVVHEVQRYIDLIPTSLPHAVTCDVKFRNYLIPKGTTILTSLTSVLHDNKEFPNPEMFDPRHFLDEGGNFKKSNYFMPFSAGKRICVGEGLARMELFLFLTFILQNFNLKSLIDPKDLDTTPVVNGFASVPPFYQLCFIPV

hERG channels = hERG channels (Homo sapiens, UniProt Q12809); test: Functional hERG blocking assay, patch clamp in CHO hERG cell line
Chain of hERG channels (Q12809 whole entry): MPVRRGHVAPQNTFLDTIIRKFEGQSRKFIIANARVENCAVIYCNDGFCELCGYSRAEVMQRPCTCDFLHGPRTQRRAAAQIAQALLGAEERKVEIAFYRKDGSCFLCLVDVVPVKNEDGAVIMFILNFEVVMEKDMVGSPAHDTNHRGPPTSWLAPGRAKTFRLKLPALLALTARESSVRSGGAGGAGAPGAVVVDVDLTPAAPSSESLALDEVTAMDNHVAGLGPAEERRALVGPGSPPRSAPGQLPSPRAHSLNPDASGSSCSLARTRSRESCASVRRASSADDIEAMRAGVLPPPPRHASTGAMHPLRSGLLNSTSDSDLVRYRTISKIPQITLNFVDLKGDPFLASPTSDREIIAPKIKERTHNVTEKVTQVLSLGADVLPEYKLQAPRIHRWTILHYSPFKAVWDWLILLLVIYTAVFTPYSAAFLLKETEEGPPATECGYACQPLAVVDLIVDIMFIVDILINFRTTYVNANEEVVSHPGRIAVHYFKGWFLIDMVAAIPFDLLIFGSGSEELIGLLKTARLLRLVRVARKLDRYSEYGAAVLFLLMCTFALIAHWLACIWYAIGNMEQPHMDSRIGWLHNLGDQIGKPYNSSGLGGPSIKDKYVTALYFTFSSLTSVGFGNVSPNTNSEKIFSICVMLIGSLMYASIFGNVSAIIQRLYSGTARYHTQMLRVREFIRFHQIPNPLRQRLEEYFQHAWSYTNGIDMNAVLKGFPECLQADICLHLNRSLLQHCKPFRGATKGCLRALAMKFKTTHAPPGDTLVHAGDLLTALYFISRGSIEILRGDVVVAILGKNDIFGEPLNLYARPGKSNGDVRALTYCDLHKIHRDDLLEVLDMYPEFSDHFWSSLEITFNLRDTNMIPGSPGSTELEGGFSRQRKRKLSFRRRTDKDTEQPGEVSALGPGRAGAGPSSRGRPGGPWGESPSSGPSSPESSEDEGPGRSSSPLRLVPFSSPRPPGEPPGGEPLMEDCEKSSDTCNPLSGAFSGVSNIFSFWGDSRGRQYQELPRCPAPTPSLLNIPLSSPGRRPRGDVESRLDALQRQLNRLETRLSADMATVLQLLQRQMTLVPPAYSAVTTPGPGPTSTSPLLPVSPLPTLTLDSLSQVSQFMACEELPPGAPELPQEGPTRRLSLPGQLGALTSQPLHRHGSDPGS

CYP 2C9 = molecular target: T5, CYP 2C9 (Homo sapiens, UniProt P11712); test: Cytochromes enzyme inhibition assay, human liver microsomes; format: in vitro ADME; conditions: substrate diclofenac (10 µM)
T5 construct: from tissue; host or cells: human liver microsomes
T5 sequence (P11712 whole entry): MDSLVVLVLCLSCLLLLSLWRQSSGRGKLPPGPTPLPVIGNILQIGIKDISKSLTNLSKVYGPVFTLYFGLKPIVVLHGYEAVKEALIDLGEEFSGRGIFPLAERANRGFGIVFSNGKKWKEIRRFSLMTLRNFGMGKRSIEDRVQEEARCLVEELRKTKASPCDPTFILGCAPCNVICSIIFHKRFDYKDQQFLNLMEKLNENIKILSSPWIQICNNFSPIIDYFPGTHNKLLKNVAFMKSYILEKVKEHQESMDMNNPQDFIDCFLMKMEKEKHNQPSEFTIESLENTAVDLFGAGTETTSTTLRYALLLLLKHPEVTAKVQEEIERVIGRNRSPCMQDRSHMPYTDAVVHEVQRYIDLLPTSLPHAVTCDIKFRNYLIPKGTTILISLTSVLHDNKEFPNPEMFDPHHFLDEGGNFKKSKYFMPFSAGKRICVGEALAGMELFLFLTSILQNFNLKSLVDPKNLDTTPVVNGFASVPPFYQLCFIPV

[2] = system: unselected B16-F1 melanoma cells; test: Proliferation of unselected B16-F1 cells on 2D rigid dishes; format: cell-based, murine; conditions: 10 μM, 48 hours
Procedure: Supplementary Figure 9. WYC-209 detaches adherent melanoma cells on rigid plastic. Murine melanoma cell line B16-F1 were cultured on rigid plastics and treated with 10 μM WYC-209 and observed for 48 hours. Cell nucleus were stained with DAPI. DMSO: medium containing 0.1% DMSO. (a) Representative images of cells stained with DAPI 48 hrs after treatment. Scale bars, 500 μm. (b) Quantitation of cell numbers per view field of B16-F1 treated with WYC-209. Mean ± s.e.m.; n=5 samples; 3 independent experiments; *** P<0.001 (Student’s t-test).
(§1) (1 picture or pasted object on this page, not shown here)

[3] = system: human ovarian cancer A2780; test: Colony growth of A2780 TRCs in 90-Pa fibrin gels; format: cell-based
Procedure: (§2) Salmon fibrinogen and thrombin were purchased from Reagent Proteins (CA, USA). 3D fibrin gels were prepared as described previously[5],[6]. In brief, fibrinogen was diluted into 2 mg mL^−1 with T7 buffer (pH 7.4, 50 mM Tris, 150 mM NaCl). Cells were detached from 2D rigid dishes and cell density was adjusted to 10^4 cells per mL. Fibrinogen and cell solution mixture were made by mixing the same volume of fibrinogen solution and cell solution, resulting in 1 mg mL^−1 fibrinogen and 5000 cells per mL in the mixture fibrin gels. A volume of 50 μL cell/fibrinogen mixture was seeded into each well of 96-well plate and mixed well with pre-added 1 μL thrombin (100 U mL^−1). The cell culture plate was then incubated in 37 °C cell culture incubator for 10 min. Finally, 200 μL of DMEM medium containing 10% FBS and antibiotics was added.

[4] = system: human breast cancer MCF-7; test: Colony growth of MCF-7 TRCs in 90-Pa fibrin gels; format: cell-based
Procedure: as §2

[5] = system: human malignant melanoma A375; test: Colony growth of A375 TRCs in 90-Pa fibrin gels; format: cell-based; conditions: Homo sapiens
Procedure: as §2

Mitf = Mitf expression by qPCR in TRCs; format: cell-based, murine; conditions: 0.1–10 µM for 24 h
Procedure: Total mRNA was isolated from the cells using the Trizol reagent according to the supplier’s instruction (Invitrogen). Reverse transcription (RT) was performed using the TransScript First-strand cDNA Synthesis SuperMix (TransGen), according to the manufacturer’s protocol. Real-time RT-PCR was performed using GoTaq qPCR Master Mix (Promega). The data were normalized against mouse glyceraldehyde 3-phosphate dehydrogenase. The primer sequences are as follows: mouse GAPDH (F: 5′-[…]-3′, R: 5′-[…]-3′); mouse RARα (F: 5′-[…]-3′, R: 5′-[…]-3′); mouse RARβ (F: 5′-[…]-3′, R: 5′-[…]-3′); mouse RARγ (F: 5′-[…]-3′, R:5′-[…]-3′); mouse Sox2 (F: 5′-[…]-3′, R: 5′-[…]-3′); mouse Mitf (F: 5′-[…]-3′, R: 5′-[…]-3′).
Supplementary Figure 39. WYC-209 decreases Sox2 expression but has no effects on Mitf expression. Murine melanoma cells B16-F1 were seeded into 3D soft fibrin gels and then were treated with 0.1% DMSO, 0.1, 1 or 10 µM WYC-209, WYC-209A, or WYC-209B on day 4. mRNA of cells were extracted after 24 hours. Sox2 (a) and Mitf (b) expressions […]
as §1

[6] = 0.022 mg kg−1 i.v. every two days from day 5 after 30,000 TRCs i.v.
[7] = 0.22 mg kg−1 i.v. every two days from day 5 after 30,000 TRCs i.v.
[8] = pretreated with 10 µM, at least 5 days

| Compound | IC50 (CYP 1A2) | solubility at 1 h (Water solubility) | Metastases in H&E-stained organ sections [1] | Mice with lung metastases [1, 6] | Mice with lung metastases [1, 7] | IC50 (CYP 3A4; first 3A4 column) | IC50 (CYP 3A4; second 3A4 column) | IC50 lower / potency higher than that of Tazarotene (B16-F1 TRCs) | inhibition at 10 µM (B16-F1 TRCs) | IC50 (B16-F1 TRCs) | Growth after re-plating into new soft fibrin gels without compound (B16-F1 TRCs; [8]) | Growth after re-plating into new soft fibrin gels without compound (B16-F1 TRCs; pretreated with 0.1 or 1 μM) | IC50 (CYP 2D6) | IC50 (CYP 2C19) | IC50 (hERG channels) | IC50 (CYP 2C9) | other results |
| --- | --- | --- | --- | --- | --- | --- | --- | --- | --- | --- | --- | --- | --- | --- | --- | --- | --- |
| CCOC(=O)c1cnc(C#Cc2ccc3c(c2)C(C)(C)CC[S@@+]3[O-])nc1 [WYC-209B] | > 10 µM | 88.1 µM (≈ 32.5 µg/mL) | exhibited metastases in the lungs but not in other organs | three out of eight | one out of eight | > 10 µM | > 10 µM | about 10 fold | 100% | 0.22 µM | none of the cells grew at all | some tumor cell growth | > 10 µM | > 10 µM | > 30 µM | > 10 µM |  |
| CCOC(=O)c1cnc(C#Cc2ccc3c(c2)C(C)(C)CC[S@+]3[O-])nc1 [WYC-209A] | > 10 µM | 89.4 µM (≈ 32.9 µg/mL) | exhibited metastases in the lungs but not in other organs | three out of eight | one out of eight | > 10 µM | > 10 µM | about 10 fold | 100% | 0.15 µM | none of the cells grew at all | some tumor cell growth | > 10 µM | > 10 µM | > 30 µM | > 10 µM |  |
| CCOC(=O)c1cnc(C#Cc2ccc3c(c2)C(C)(C)CC[S+]3[O-])nc1 (stereo not drawn) [WYC-209] |  |  |  | four out of eight and 4/8 | one out of eight and 1/8 |  |  | about 10 fold | 100% | 0.19 µM | none of the cells grew at all | some tumor cell growth |  |  |  |  | Average lung weight versus DMSO group ([1]; 0.22 mg kg−1): less; Lung metastases of melanoma TRCs abrogated ([1]; 0.22 mg kg−1): 87.5%; Lung metastases in untreated mice injected with pretreated TRCs ([1]; TRCs pretreated with 10 µM in fibrin gels day 3-5, 30,000 TRCs i.v., 8 mice): no lung metastases; Proliferation of unselected B16-F1 cells on 2D rigid dishes [2]: completely inhibited; IC50 ([3]; 0 h, A2780, treated on day 0): 0.23 µM; inhibition at 10 µM ([3]; A2780, 10 μM): 100%; Duration of effect after washout (long-lasting) (B16-F1 TRCs; melanoma TRCs re-plated in fresh medium without compound): > 5 days; IC50 ([4]; MCF7, 0 h, MCF-7, treated on day 0): 0.1 µM; inhibition at 10 µM ([4]; MCF7, MCF-7, 10 μM): 100%; IC50 ([5]; A-375, 0 h, A375, treated on day 0): 0.38 µM; inhibition at 10 µM ([5]; A-375, A375, 10 μM): 100%; Change in Mitf expression (Mitf): did not change |
